From US4939138A, “2- and 3-aminomethyl-6-arylcarbonyl-2,3-dihydropyrrolo(1,2,3-DE)-1,4-benzoxazin es” (Sterling Drug Inc., priority 1989, dated 1990) come the findings set out here.

Structures are written as SMILES.

As usually defined, the ED50 is the dose at which the effect has come halfway, by size or by number of responders. A high value points to a need for a large dose. For orientation: IC50 means the concentration needed to halve the response being measured. A higher IC50 goes with weaker potency in that assay.

For assay [1], the system named is acetylcholine-induced abdominal constriction. Briefly: acetylcholine-induced abdominal constriction test (ACH). The conditions noted are these: for ED50: Mus musculus. Type of assay: in vivo, mice. From the text:
(§1) The test procedures used to determine the analgesic activities of the compounds have been described in detail in the prior art and are as follows: The acetylcholine-induced abdominal constriction test, which is a primary analgesic screening test designed to measure the ability of a test agent to suppress acetylcholine-induced abdominal constriction in mice, described by Collier et al., Brit. J. Pharmacol. Chemotherap. 32, 295 (1968); a modification of the anti-bradykinin test, which is also a primary analgesic screening procedure, described by Berkowitz et al., J. Pharmacol. Exptl Therap. 177, 500-508 (1971), Blane et al., J. Pharm. Pharmacol 19, 367-373 (1967), Botha et al., Eur. J. Pharmacol. 6, 312-321 (1969) and Deffenu et al., J. Pharm. Pharmacol. 18, 135 (1966); the rat paw flexion test, described by Kuzuna et al., Chem. Pharm. Bull., 23, 1184-1191 (1975), Winter et al., J. Pharm. Exptl. Therap., 211, 678-685 (1979) and Capetola et al., J. Pharm. Exptl. Therap. 214, 16-23 (1980); and the mouse vas deferens adrenergic transmission test, described by Henderson et al., Brit. J. Pharmacol., 46, 764-766 (1972).
(§2) In the acetylcholine-induced abdominal constriction test, the test compounds were administered either as suspensions in gum tragacanth (GT) or as aqueous solutions prepared by addition of just sufficient dilute aqueous methanesulfonic acid (MS) or dilute aqueous lactic acid (LA) to dissolve the compound The compounds are identified by the example number above where their preparations are described All data in the anti-bradykinin, rat writhing and Randall-Selitto tests were obtained on oral administration.

The test system of another assay is bradykinin. Briefly: anti-bradykinin test (BDK/BRKD). The format is in vivo. The conditions noted are these: oral.
Excerpt: as §1, with “(1972). […]” for “(1972).”

In another assay the test system is cyclooxygenase. Briefly: inhibition of cyclooxygenase assay (CO). The conditions noted are these: 30 μM; negative values = increases over controls, not demonstrated to differ significantly. Type of assay: biochemical, mice. How it is done: (§3) In order to further detail the analgesic profiles of the compounds of the invention, their activities in the inhibition of acetic acid-induced writhing assay in the rat, the inhibition of cyclooxygenase assay and a modification of the Randall-Selitto analgesic test were also determined The test procedure used to determine the inhibition of acetic acid-inducedwrithing in the rat is described as follows.
The test procedure used to determine cyclooxygenase inhibitory activity is described as follows.
Male mice were decapitated and stomach and brain (cerebral cortex, hypothalamus and medulla) were rapidly dissected over ice. The brains were homogenized in 3 volumes of ice cold 0.1 M potassium phosphate buffer, pH 7.4 containing 10 mM EDTA and 1% BSA (w/v). The homogenate was centrifuged at 10,000 xg for 15 minutes. The resulting supernatant was decanted and centrifuged at 100,000 xg for 60 minutes yielding a crude microsomal pellet. The pellet was washed superficially three times in 3 volumes of 0.1 M potassium phosphate buffer before final resuspension in 1.5 volumes of 0.1 M potassium phosphate buffer containing 1 mM norepinephrine and 1 mM reduced glutathione. The microsomes (50 μl) were preincubated with 50 μl of indomethacin (0.3 μM), test compound or norepinephrine/glutathione-containing buffer for 5 minutes at room temperature. The enzyme reaction was initiated by the addition of 50 μl of ^14 C arachidonic acid to yield a final concentration of 10 μM. After a further incubation of 15 minutes at 37° C., the reaction was stopped by the addition of 50 μl of 4M formic acid. Blank values were determined by using microsomes boiled for 5 minutes but otherwise were treated similarly. The ^14 C-labelled material was extracted 3 times with 0.5 ml of ethyl acetate with intermediate centrifugations at 500 xg for 5 minutes to clarify the aqueous and organic phases. This procedure extracted >95% of the ^14 C-labelled materials. The ethyl acetate washes were added to tubes containing 5 μg each of PGE2, PGF2, PGD2, and 10 μg PGI2 in 25 μl of ethanol. The mixture was evaporated to dryness under nitrogen and the residue dissolved in 150 μl of chloroform:methanol (2:1). This solution was spotted on 5×20 cm silica gel plates and chromatographed with an ethyl acetate, trimethylpentane, acetic acid and water mixture (110:50:20:100 by volume) prepared by shaking the solvents and separating and discarding the organic phase. The prostaglandins were visualized in iodine vapor, the various spots were scraped, and the ^14 C-labelled prostaglandins quantitated by liquid scintillation spectroscopy in 10 ml of BIOFLUOR® or FLUORODYNE®.
as §2

Assay [2] relates to acetic acid-induced writhing. The assay is described as follows: inhibition of acetic acid-induced writhing in the rat (RW). The format is in vivo, rat (male Sprague Dawley). The conditions noted are these: oral. How it is done: as §3
Male Sprague Dawley rats (Taconic Farms) weighing between 160 and 200g were treated in a random and blind fashion with 1% gum tragacanth vehicle or test agent suspended or dissolved in 1% gum tragacanth. Rats were individually housed in plastic cages (28×18×12 cm) throughout the experiment. Forty-five minutes after drug treatment, 0.5 ml of 9% (w/v) acetic acid was administered intraperitoneally, and animals were returned to their cages for 10 minutes. Writhing is not normally seen during this 10 minute period. Each animal was then observed for a writhing response during a subsequent 10 minute interval (55-65 minutes post-drug treatment). A writhing response was defined as arching of the back with extension of the hindlimbs and contraction of abdominal muscles. […] Data were expressed as percent inhibition of the mean number of writhes in the vehicle treated control group. Data were evaluated for statistical significance by Dunnett's test, and ED50 's for inhibition of acetic acid-induced writhing were determined by the graded dose-response analysis of Tallarida and Murray, Manual of Pharmacologic Calculations with Computer Programs, Springer Verlag, New York (1981).
as §2

For a further assay, the system named is mouse vas deferens. The assay is described as follows: mouse vas deferens adrenergic transmission test (MVD). The conditions noted are these: concentration producing 50% of the maximum response.
Excerpt: as §1
As before, the compounds are identified by the example number above where their preparations are described.

Assay [3] has as its system brewers' yeast-induced hyperalgesia. Briefly: modification of the Randall-Selitto analgesic (paw pressure) test (R-S). Type of assay: in vivo, rat (Sprague-Dawley). The conditions noted are these: Rattus norvegicus; oral; read-out: R-S minimum effective dose, MED. How it is done:
as §3
The modification of the Randall-Selitto analgesic test procedure used is described as follows:
Female Sprague-Dawley rats, weighing 60 to 95 grams, were routinely used. […] The rats were housed 10 per cage with food and water available ad libitum.
The Randall-Selitto Test device used was a UGO Basile Analgesy Meter (catalog no. 7200), with the flat-topped plinth on the bottom, acting as a platform upon which the hind paw of the rat was placed and the round-pointed pusher oriented downward. […]
Animals were given the test drug, p.o., two hours after the sub-plantar injection, four doses customarily being given, along with vehicle control and a positive control (Zomepirac). […] Treatments were assigned in such a way that both the range and the means of the baseline readings were as nearly equal as possible for all treatments. […]
Results were analyzed with the Student's t-test. […]

Setting [4] is: p.o., dose level 100, suspension in gum tragacanth (GT).

In the case of `COc1ccc(C(=O)c2c(C)n3c4c(cccc24)OCC3CN2CCOCC2)cc1` (stereo not shown) [Example 1A, 3-(4-morpholinylmethyl)-5-methyl-6-(4-methoxybenzoyl)-2,3-dihydropyrrolo[1,2,3-de]-1,4-benzoxazine], in assay [1] (iv), the median effective dose (ED50) came out at 3.4 mg/kg. The ACH percent inhibition stood at 30% in assay [1] (p.o., dose level 100, aqueous methanesulfonic acid (MS)) and 20% in assay [1] (setting [4]). The BRKD percent inhibition in the assay with bradykinin (dose level 300) is given as 0%. The “CO percent inhibition (% I)” value in the assay on cyclooxygenase is listed as 19%. Also, the RW percent inhibition in assay [2] (dose level 100) was determined as 50.6%; in assay [2] (dose level 300), 23%. This molecule also registered an IC50 with mouse vas deferens of 123 ± 13 nM.

Take `Cc1c(C(=O)c2cccc3ccccc23)c2cccc3c2n1C(CN1CCOCC1)CO3` (stereo not shown) [Example 1B, 3-(4-morpholinylmethyl)-5-methyl-6-(1-naphthylcarbonyl)-2,3-dihydropyrrolo1,2,3-de]-1,4-benzoxazine methanesulfonate]: the median effective dose (ED50) stood at 0.25 mg/kg in assay [1] (iv); 33 mg/kg in assay [1] (po, aqueous methanesulfonic acid (MS)); 35 mg/kg in the assay on bradykinin; 8.6 mg/kg in assay [2] (Rattus norvegicus). For the same molecule, the ACH percent inhibition in assay [1] (setting [4]) was found to be 30%; in assay [1] (s.c., dose level 100) it was 73%. The minimal effective dose in assay [3] was 0.003 mg/kg. Moreover, the “CO percent inhibition (% I)” value in the assay on cyclooxygenase is -35%.
